The text below walks through data of US4937371A, “Dihydroxynaphthalene derivatives” (Hoffmann-La Roche Inc., priority 1989, dated 1990).

By IC50 is commonly meant the concentration needed to halve the response being measured. Read a low IC50 as greater potency.

The subject of assay [1] is Myeloperoxidase accumulation (rat acetic acid colitis model). Nature of the assay: Acetic acid-induced colitis in rats, in vivo. Further details: species or system rat (Sprague-Dawley). An excerpt: Acetic Acid-Induced Colitis in Rats, In Vivo
The rat acetic acid-induced colitis bioassay has been described by J. E. Krawisz, et al. in Amer. J. Proc. Gastro. Col. Rec. Surg. 31: 11-18 (1980), and by P. Sharon and W. F. Stenson in Gastroenterolgy 88: 55-63 (1985) and 86:453-460 (1984). Acetic acid-induced colitis is characterized by the movement of inflammatory cells into the colon, with the number of such cells in the mucosa being measured by the activity of myeloperoxidase, a marker enzyme for these cells. Positive desirable activity is indicated by a reduction in the high levels of myeloperoxidase caused by acetic acid. Male rats (Sprague-Dawley), weighing 150 to 300 g, were pretreated twice daily for two days with either the vehicle (water, or dimethylsulfoxide) or the test inhibitor compound suspended in water or dissolved in dimethylsulfoxide and orally administered. On the third day, the animals were dosed the same as on the previous two days, anesthetized with metofane, and 2 ml of 2.5% acetic acid was injected by syringe into the colonic lumen, followed immediately by 3 ml of air and a rinse consisting of 3 ml of phosphate-buffered saline (the acetic acid is Present in the lumen for a sufficient period to cause inflammation without producing severe necrosis or irreversible damage). The animals were administered a second dose of the test compound in the same amount about 16 hours later. Twenty four hours after the acetic acid treatment, the animals were sacrificed, the colonic mucosa was surgically removed and homogenized in an aqueous buffer at pH 6 with a Tissumizer or similar device, and myeloperoxidase was measured in the homogenate using o-phenylenediamine as a chromagen, as described by A. Voller, D. E. Bidwell and A. Bartlett in The Enzyme Linked Immunosorbent Assay (ELISA), Zoological Soc., London, 1979, pages 29-30. Control animals were pretreated with the vehicle and saline in place of acetic acid.

In assay [2] the test system is LTB4 formation (Δ^5 -lipoxygenase (5-LO) pathway). Nature of the assay: Rat peritoneal macrophage assay, in vitro: LTB4 formation. The note with it: 0.5 h, rat peritoneal macrophages, 30 min incubation, A 23187-stimulated. Type of assay: cell-based. The source says: (§1) RAT PERITONEAL MACROPHAGE ASSAY, IN VITRO
(§2) The rat peritoneal macrophage assay measures the ability of a test compound to influence the release of arachidonic acid (AA) from phospholipid stores in the plasma membrane and the subsequent metabolism of AA by the Δ^5 -lipoxygenase (5-LO) and cyclooxygenase (CO) pathways to the final products excreted by the cells: leukotriene B4 (LTB4, from the 5-LO pathway) and prostaglandin E2 (PGE2, from the CO Pathway).
(§3) Macrophages were obtained from rats by peritoneal lavage with phosphate buffered saline minus Ca^+2 and Mg^+2 (PBS). Cells were washed 3 times with PBS and resuspended in Delbecco's Modified Eagle medium (Gibco Laboratories) containing L-glutamine and D-glucose and supplemented with 10% fetal calf serum. Cells were counted on a Coulter ZBA cell counter and then resuspended to a concentration of 4×10^6 cells/mL. […] The extracellular fluid was removed and ^14 C radioactivity released into this fluid from AA metabolism was measured by liquid scintillation spectroscopy. The amounts of LTB4 and PGE2 were measured in the extracellular fluid by radioimmunoassay with specific antisera. […]
(§4) This assay measures inhibition by the test compounds of the 5-LO and the CO pathways of AA metabolism and this inhibition is expressed as an IC50 for LTB4 and PGE2 formation, respectively.

The target in assay [3] is T1, Δ^5 -lipoxygenase from rat basophilic leukemia (RBL-1) cells (Rattus norvegicus, UniProt P12527).
T1 construct: The Δ^5 -lipoxygenase was derived from the supernatant fraction of lysed RBL-1 cells; endogenous in cells; host or cells: RBL-1 (rat basophilic leukemia) cells, 49,000 g supernatant of the homogenate
T1 sequence (P12527 1-673): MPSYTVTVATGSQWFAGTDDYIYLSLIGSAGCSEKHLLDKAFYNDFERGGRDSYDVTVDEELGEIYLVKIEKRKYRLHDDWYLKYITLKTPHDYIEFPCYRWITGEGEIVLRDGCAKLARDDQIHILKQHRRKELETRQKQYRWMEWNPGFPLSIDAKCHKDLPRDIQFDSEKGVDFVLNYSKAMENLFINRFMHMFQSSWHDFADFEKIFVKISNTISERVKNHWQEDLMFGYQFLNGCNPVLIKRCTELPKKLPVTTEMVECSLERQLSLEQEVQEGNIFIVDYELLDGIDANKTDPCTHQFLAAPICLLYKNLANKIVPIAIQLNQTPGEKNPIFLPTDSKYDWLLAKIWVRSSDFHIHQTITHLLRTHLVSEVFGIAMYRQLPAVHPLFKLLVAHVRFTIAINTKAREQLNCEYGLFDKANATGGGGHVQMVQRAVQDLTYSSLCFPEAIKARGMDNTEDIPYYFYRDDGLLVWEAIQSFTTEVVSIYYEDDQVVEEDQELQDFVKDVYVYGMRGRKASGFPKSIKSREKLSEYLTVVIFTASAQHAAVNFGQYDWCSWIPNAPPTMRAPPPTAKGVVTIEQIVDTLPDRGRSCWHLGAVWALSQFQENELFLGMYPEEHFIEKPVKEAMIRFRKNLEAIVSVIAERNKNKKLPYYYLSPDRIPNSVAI
Kind of assay: In vitro test for Δ^5-lipoxygenase inhibitors (RBL-1 cell supernatant). The class given is biochemical. The conditions noted are these: Δ^5-lipoxygenase from RBL-1 cells; 10 min preincubation at 30° C.; 6.7 μM arachidonic acid; 37° C.; pH 7.2. As for the experimental part:
IN VITRO TEST FOR Δ^5 -LIPOXYGENASE INHIBITORS
Compounds of formula I of the invention were tested for their effect on Δ^5 -lipoxygenase from rat basophilic leukemia (RBL-1) cells. The activity of this enzyme was determined by measuring the catalytic conversion of [1-^14 C]arachidonic acid to [1-^14 C-5-hydroperoxy- 6,8,11,14-eicosatetraenoic acid ([1-^14 C]-5-HPETE) which leads to the formation of the 5-hydroxy derivative ([1-^14 C]-5-HETE). The Δ^5 -lipoxygenase was derived from the supernatant fraction of lysed RBL-1 cells using a modification of the method previously described by Jakschik and Lee [Nature 287:51 (1980)]. Briefly, RBL-1 cells were lysed by homogenization in ice-cold buffer (50 mM Tris-HCl buffer, pH 7.2, containing 1 mM EDTA and 14 μM indomethacin). The homogenate was centrifuged at 4° C. and 49,000 g for 20 minutes and the resulting supernatant fraction was used as the source of Δ^5 -lipoxygenase. […] The ethereal extract containing [1-^14 C]-5-HETE and unreacted substrate analyzed by silica gel TLC using isooctane-methylethyl ketone acetic acid (100:9:1) as the developing solvent. […] The effect of inhibitors on Δ^5 -lipoxygenase activity was determined by preincubating the enzyme for 10 minutes at 30° C. in the presence or absence of various concentrations of the drug prior to addition of substrate. […]

For assay [4], the system named is PGE2 formation (cyclooxygenase (CO) pathway). Nature of the assay: Rat peritoneal macrophage assay, in vitro: PGE2 formation. Type of assay: cell-based. The note with it: 0.5 h, rat peritoneal macrophages, 30 min incubation, A 23187-stimulated.
Excerpt: as §1, §2, §3, §4

The structures appear in SMILES notation.

As to `CCCc1c(OCCCCc2ccc3c(Cl)c(O)c(O)c(Cl)c3c2)ccc(C(=O)O)c1O` [4-[4-(5,8-Dichloro-6,7-dihydroxy-2-naphthalenyl)butoxy]-2-hydroxy-3-propylbenzoic acid], the “% Inhibition of Myeloperoxidase Accumulation” value (“% Inhibition” for short) in assay [1] (10 mg/kg p.o.) came out at 71 ± 7%.
For the compound `CCCc1c(OCCCCCCc2ccc3cc(O)c(O)cc3c2)ccc(C(=O)O)c1O` [4-[6-(6,7-dihydroxy-2-naphthalenyl)hexyloxy]-2-hydroxy-3-propylbenzoic acid], the “% Inhibition” value in assay [1] (1 mg/kg p.o.) is 46 ± 12%.
`CCCc1c(OCCCCc2ccc3cc(O)c(O)cc3c2)ccc(C(=O)O)c1O` [4-[4-(6,7-Dihydroxy-2-naphthalenyl)butoxy]-2-hydroxy-3-propylbenzoic acid]: the half-inhibitory concentration (IC50) was determined as 3000 nM in assay [2], 4.7 nM in assay [3] and 2000 nM in assay [4]. Further, the “% Inhibition” value in assay [1] (3 mg/kg p.o.) was found to be 82 ± 8%.
Regarding `O=C(O)c1ccc(OCCCCCCc2ccc3cc(O)c(O)cc3c2)cc1O` [4-[6-(6,7-Dihydroxy-2-naphthalenyl)hexyloxy]-2-hydroxybenzoic acid], the “% Inhibition” value in assay [1] (1 mg/kg p.o.) worked out at 65 ± 9%.
As to `CCCc1c(OCCc2ccc3cc(O)c(O)cc3c2)ccc(C(=O)O)c1O` [4-[2-(6,7-Dihydroxy-2-naphthalenyl)ethoxy]-2-hydroxy-3-propylbenzoic acid], in assay [1] (10 mg/kg p.o.), the “% Inhibition” value was 60 ± 13%.
Still for that read-out and setting: the same measure for `O=C(O)c1ccc(OCCCCCCc2ccc3cc(O)c(O)cc3c2)cc1` [4-[6-(6,7-Dihydroxy-2-naphthalenyl)hexyloxy]benzoic acid]: 68 ± 13%.
For `CCCc1c(OCCCCC(=O)c2ccc3cc(O)c(O)cc3c2)ccc(C(=O)O)c1O` [4-[[5-(6,7-Dihydroxy-2-naphthalenyl)-5-oxopentyl]oxy]-2-hydroxy-3-propylbenzoic acid], in assay [1] (30 mg/kg p.o.), the “% Inhibition” value is given as 80 ± 18%.
As for `CCCc1c(OCCCCCc2ccc3cc(O)c(O)cc3c2)ccc(C(=O)O)c1O` [4-[5-(6,7-Dihydroxy-2-naphthalenyl)pentyloxy]-2-hydroxy-3-propylbenzoic acid], in assay [1] (10 mg/kg p.o.), the “% Inhibition” value came to 56 ± 11%.
On to `CCCc1c(OCCCc2ccc3cc(O)c(O)cc3c2)ccc(C(=O)O)c1O` [4-[3-(6,7-Dihydroxy-2-naphthalenyl)propoxy]-2-hydroxy-3-propylbenzoic acid], for which the “% Inhibition” value in assay [1] (1 mg/kg p.o.) is given as 21 ± 4%.
Take `CCCc1c(OCCCCCC(=O)c2ccc3cc(O)c(O)cc3c2)ccc(C(=O)O)c1O` [4-[[6-(6,7-dihydroxy-2-naphthalenyl)-6-oxohexyl]oxy]-2-hydroxy-3-propylbenzoic acid]: the concentration for half-maximal inhibition (IC50) stood at 3000 nM in assay [2] and 2000 nM in assay [4].
